Measurements reported in PubChem BioAssay AID1996.
Converted amounts (≈) assume the structure as drawn.

Details: buffer; pH 7.4; 200.0 µM

solubility kinetic [µg/mL] | SMILES
> 55.2 | Cc1ccccc1NC(=O)C[n+]1cc(-c2ccccc2)n2c1CCC2.[Cl-]
5.1 (≈ 20.5 µM) | O=C1Nc2ccccc2/C1=C\C(=O)c1ccccc1
> 36.8 | COc1ccc(-c2ccc(C(=O)O)c(=O)[nH]2)cc1
38.6 (≈ 137 µM) | Cc1ccccc1OCC(=O)N1CCc2ccccc2C1
> 48.4 | O=S(=O)(NC1CCCCC1N1CCCCC1)c1ccccc1 (stereo not drawn)
0.7 (≈ 2.22 µM) | C=CCNC(=O)c1cnc(-c2ccccc2)nc1-c1ccccc1
2.1 (≈ 6.62 µM) | Cc1ccc(NC(=O)C(c2ccccc2)c2ccccc2)c(O)c1
2.1 (≈ 8.06 µM) | CC1=CC(C)(C)NC(=S)N1c1ccc(C)c(C)c1
29.5 (≈ 97.6 µM) | Clc1ccc(Cl)c(OCCCCN2CCCCC2)c1
32.3 (≈ 113 µM) | N#CN/C(=N\S(=O)(=O)c1ccccc1)c1ccccc1
36.5 (≈ 118 µM) | CCc1ccc(CN(C)C(C)C(=O)NCc2ccccc2)cc1 (stereo not drawn)
> 50.9 | COc1cccc(C(=O)Oc2ccc(N3C(=O)CCC3=O)c(C)c2)c1
53.1 (≈ 144 µM) | CS(=O)(=O)N1CCC(C(=O)N2CCN(c3ccccc3F)CC2)CC1
> 48.1 | COc1ccc(S(=O)(=O)N2CCCN(C)CC2)cc1.Cl
31.8 (≈ 112 µM) | Cc1cc(-c2ccccc2C(=O)NC2CCCCC2)on1
30.6 (≈ 142 µM) | O=C1NC(=O)C2(CCCc3ccccc32)N1 (stereo not drawn)
41.5 (≈ 135 µM) | Cc1ccccc1OC(C)C(=O)NCCCN1CCOCC1 (stereo not drawn)
> 50.9 | CC(C)CC(=O)Nc1ccc(S(=O)(=O)Nc2nccs2)cc1
5.5 (≈ 20.3 µM) | C=CCNC(=S)N1CCc2[nH]c3ccccc3c2C1
28.4 (≈ 95.8 µM) | CC1CCN(c2ccc([N+](=O)[O-])c(SCCO)c2)CC1
> 44.1 | NC(=O)c1ccccc1NS(=O)(=O)c1ccc(F)cc1
46.2 (≈ 124 µM) | CNC(=S)N(CCc1c(C)[nH]c2ccc(Cl)cc12)Cc1cccnc1
> 37.8 | Cc1cccn(Cc2c(F)cccc2Cl)c1=O
2.9 (≈ 10.1 µM) | COc1ccc2ccn(S(=O)(=O)c3ccccc3)c2c1

solubility kinetic [µg/mL] | SMILES
> 28.2 | NC(=O)CCn1ccc2ccccc21
> 45.8 | O=C(OCC(=O)N1CCCC1=O)C1COc2ccccc2O1 (stereo not drawn)
> 33.8 | C=CCn1c(=S)sc2c(=O)[nH]cnc21
> 36.2 | CC(C)c1nnc(NC(=O)C2CCCO2)s1 (stereo not drawn)
> 59.2 | CCN(CC(=O)NC1CCS(=O)(=O)C1)S(=O)(=O)c1ccccc1Cl (stereo not drawn)
7.8 (≈ 21.4 µM) | CCOP(=O)(OCC)C(Nc1cccc([N+](=O)[O-])c1)c1ccccc1 (stereo not drawn)
< 0.6 | Cc1cccc2c(=O)oc(-c3ccccc3Cl)nc12
> 46.9 | COc1cc(S(=O)(=O)NCc2ccccn2)ccc1Cl
1.5 (≈ 5.45 µM) | CCOc1ccc(N=Cc2ccc3ccccc3c2)cc1
> 49.2 | O=C(O)CC1(CC(=O)Nc2ccc(F)c(Cl)c2)CCCCC1
> 33.9 | O=C(COc1ccccc1Cl)NC1CC1
> 33.5 | CN(c1c[nH]c(=O)[nH]c1=O)C1CCCCC1
3.8 (≈ 14.1 µM) | CCOc1ccc(CNC(=O)Nc2ccccc2)cc1
5.1 (≈ 16.2 µM) | CC(C)c1ccc(NC(=O)CCC(=O)NCc2ccco2)cc1
46.8 (≈ 137 µM) | Cc1ccc(NC(=O)CSc2nccn2Cc2ccco2)c(C)c1
> 46.7 | O=C(c1ccc(F)cc1)C1CCN(C(=O)c2ccccc2)CC1
38.1 (≈ 121 µM) | Cc1c(C(=O)N(C)CCn2ccnc2C)oc2c(F)cccc12
1 (≈ 2.91 µM) | CC(=O)c1c(C)n(-c2ccccc2Br)c2ccc(O)cc12
> 53.2 | O=C(NCCCn1ccnc1)/C(=C/c1ccco1)NC(=O)c1ccco1
> 40.7 | COc1ccccc1C(=O)O/N=C(\N)c1ccccn1
> 42.9 | CC(=O)N1CCN(C(=O)c2oc3ccccc3c2C)CC1
> 39.6 | CCOc1ccc(S(=O)(=O)NCCCl)cc1
> 56.2 | O=C(COC(=O)c1cc[n+]([O-])cc1)Nc1ccc(Cl)c(C(F)(F)F)c1
> 52.3 | COc1ccc(NS(=O)(=O)c2ccc3c(c2)CCC(=O)N3)cc1O

solubility kinetic [µg/mL] | SMILES
< 0.4 | CCOc1ccccc1NC(=O)c1ccccc1NC(=O)c1ccco1
39.7 (≈ 117 µM) | COC(=O)c1cc(OC)c(OC)cc1NC(=S)N1CCOCC1
6.1 (≈ 13.9 µM) | COc1ccccc1N(C)S(=O)(=O)c1ccc(C(=O)Nc2ccc(C(N)=O)cc2)cc1
0.9 (≈ 2.84 µM) | O=c1[nH]c(SCCOc2ccccc2F)nc2ccccc12
> 46.7 | COc1ccc(CN2C(=O)c3ccc(C(=O)O)cc3C2=O)cc1
> 27.8 | NC(=O)CSc1ccc(F)cc1
> 39.2 | CC(Sc1nccn1C)C(=O)Nc1ccccc1 (stereo not drawn)
> 38.9 | CSc1ncccc1C(=O)Nc1cc(C)ccn1
33.4 (≈ 101 µM) | CC(=O)NCCc1ccc(C(=O)COC(=O)C2CCCCC2)cc1
> 52.1 | CC(C)COP(=O)(c1ccc(N(C)C)cc1)C(O)c1ccccc1 (stereo not drawn)
15.9 (≈ 38.9 µM) | O=C1CCCC/C1=C\Nc1ccc(S(=O)(=O)Nc2cnc3ccccc3n2)cc1
29.2 (≈ 116 µM) | Cn1c(=O)n(CCc2ccccc2)c2ccccc21
10.5 (≈ 21 µM) | CS(=O)(=O)c1ccc(Cl)c(NC(=O)COC(=O)c2ccc(S(=O)(=O)N3CCCC3)cc2)c1
> 52.5 | C=CCN1C2CCCC1CC(NC(=S)Nc1ccc(Cl)cc1)C2 (stereo not drawn)
39.7 (≈ 128 µM) | Cc1[nH]c2ccccc2c1C(=O)COC(=O)c1ccc[n+]([O-])c1
33.7 (≈ 149 µM) | O=C1CSC(=Nc2ccc(Cl)cc2)N1
> 59 | COc1ccc(-c2cc(C(=O)NN3CCOCC3)c3ccccc3n2)cc1OC
> 42.3 | O=C(O)Cn1c(=O)n(Cc2ccccc2)c2ccccc21
0.3 (≈ 0.962 µM) | CCC(=O)NC(=S)Nc1cccc(Cl)c1N1CCCC1
< 0.3 | COc1ccccc1C(=O)Nc1nc2ccccc2s1
> 50 | Cc1ccc(S(=O)(=O)NCCC(=O)NCc2cccnc2)cc1
< 0.7 | Cc1ccc(C(=O)NCc2ccc3c(c2)OCO3)cc1Cl
35.6 (≈ 117 µM) | Cc1ccccc1NC(=O)CSc1nc(O)cc(=O)n1C
7.1 (≈ 23.3 µM) | O=C(Cc1ccccc1F)Nc1ccccc1-c1ccccc1

solubility kinetic [µg/mL] | SMILES
> 47.3 | OC(c1ccc(F)cc1)C(CN1CCOCC1)c1ccccc1 (stereo not drawn)
< 0.6 | Cc1nc2c(C(F)(F)F)cccc2c2c1CCS2
> 49.3 | CCOc1ccc(S(=O)(=O)Nc2cnc3ccccc3c2)cc1
> 33 | Nc1n[nH]c(N)c1N=Nc1ccc(F)cc1
21.1 (≈ 75.1 µM) | Cc1ccc(NC(=O)CNC2CCCCC2)cc1Cl
1.8 (≈ 5.74 µM) | OCCCNc1nc(-c2ccc(Cl)cc2)nc2ccccc12
19.7 (≈ 65.8 µM) | COCc1nc2oc3ccccc3c(=O)c2cc1C(=O)OC
3.8 (≈ 12.1 µM) | CC(NC(=O)Cc1ccsc1)c1ccc(Cl)cc1Cl (stereo not drawn)
30.1 (≈ 119 µM) | N#CCOC(=O)c1c2c(nc3ccccc13)CCC2
1.5 (≈ 4.52 µM) | C/C(=N/OC(=O)c1ccccc1Br)c1ccc(C)cc1
33.2 (≈ 132 µM) | CC(=O)Cc1nsc(Nc2ccc(F)cc2)n1
> 41.5 | CC(C)c1ccc(-n2ccnc2SCC(=O)O)cc1
0.4 (≈ 1.19 µM) | COc1cc(OC)cc(C(=O)NCc2ccc(-n3cccc3)cc2)c1
> 58.1 | Cc1cc(=O)oc2c(C)c(OCC(=O)NCC3CCC(C(=O)O)CC3)ccc12 (stereo not drawn)
2 (≈ 5.59 µM) | NC(=NC(=O)c1ccc(OCC(F)(F)F)nc1)c1ccc(Cl)cc1
> 44.9 | NC1=NC(=O)CC(C(=O)Nc2cccc3ccccc23)S1 (stereo not drawn)
3.4 (≈ 10.4 µM) | O=C(COC(=O)CCC1CCCC1)Nc1ccc(F)cc1Cl
43.9 (≈ 121 µM) | CCN(CC(=O)Nc1ccc(OC)cc1)C(=O)c1ccc2ccccc2c1
31.5 (≈ 134 µM) | O=C(NCc1ccccc1Cl)c1ccc[nH]1
20.9 (≈ 66.5 µM) | CN(c1ccccc1)c1nc(N)c([N+](=O)[O-])c(N2CCCC2)n1
2.6 (≈ 7.75 µM) | NC(=O)Cn1c(=O)n(-c2ccccc2)c(=O)c2oc3ccccc3c21
> 47.2 | O=C(NCCc1ccccc1)C1CC(=O)N(C2CCCCC2)C1 (stereo not drawn)
37.5 (≈ 115 µM) | O=C1c2ccccc2NC(c2ccc(Br)s2)N1O (stereo not drawn)
41.6 (≈ 132 µM) | CC(C)OCCCNC(=O)Cc1ccc(Br)cc1

solubility kinetic [µg/mL] | SMILES
> 48 | COc1ccc(CC(=O)Nc2cc(Cl)ccc2C(=O)O)cc1
< 0.3 | CC(C)NC(=O)c1c(O)c2cccc3c2n(c1=O)CCC3
34.9 (≈ 119 µM) | Cc1cccc(NC(=O)c2c(-c3ccccc3)noc2C)n1
29.6 (≈ 98.6 µM) | COc1ccc(-c2noc(=O)n2Cc2ccccc2F)cc1
4.1 (≈ 18.2 µM) | Cc1ccc(C(=O)CNc2ccccc2)cc1
> 32.4 | Nc1ccccc1C(=O)NCc1ccco1
> 50.7 | O=C(CN1CCOCC1)Nc1nc(-c2ccc(Cl)cc2)cs1
8.1 (≈ 25.8 µM) | Cc1cc2ccccn2c1C(=O)c1ccccc1Br
32.6 (≈ 99 µM) | Cc1ccc(N=C2C(=O)Nc3ccc(C)c(Br)c32)cc1
> 34.4 | CC(CC(=O)O)CC(=O)Nc1nncs1 (stereo not drawn)
> 50.9 | CN(CCC(=O)Nc1ccc(Cl)cc1)Cc1ccccc1.Cl
1.2 (≈ 3.69 µM) | Cc1cc2oc(=O)cc(CN(C)Cc3cccc(F)c3)c2cc1C
> 52.6 | CC(=O)NC(Cc1c[nH]c2ccccc12)C(=O)NCCc1ccccn1 (stereo not drawn)
48 (≈ 147 µM) | COC(=O)c1ccccc1NS(=O)(=O)c1ccc(Cl)nc1
> 43.1 | CN(CC(=O)Nc1cccc(F)c1)C(=O)c1ccncc1
> 35.6 | O=C(COC(=O)c1ccccc1F)NC1CC1
41.4 (≈ 131 µM) | OC(CN1CCN(c2ccccc2Cl)CC1)c1ccccc1 (stereo not drawn)
> 47.6 | Nc1ccc(Cl)c(S(=O)(=O)Nc2ccccc2Cl)c1
39.2 (≈ 118 µM) | Cc1ccc(-c2csc(NC(=O)CN3CCOCC3)n2)cc1C
6 (≈ 17.2 µM) | CN(C)C=Nc1c(Br)cc(Br)c2nonc12
> 65.8 | C[C@H](NS(=O)(=O)c1ccccc1F)C(=O)OCC(=O)Nc1ccc2c(c1)OCCO2
> 64.4 | CCOC(=O)C1=C(COC(=O)C2CC(=O)N(CCc3ccccc3)C2)NC(=O)NC1C (stereo not drawn)

SMILES | solubility kinetic [µg/mL]
Cl.O=C(O)Cc1cnc[nH]1 | > 24.4
CCC1(OC(=O)c2ccccc2)CC(C)N(C)CC1C.Cl (stereo not drawn) | 30.3
Br.CCCN(CCC)C1CCc2cccc(O)c2C1 (stereo not drawn) | > 49.2
CCn1cc(C(=O)N2CCOCC2)c2ccccc21 | > 38.7
Cc1cc(N2CCCC2)ccc1C=C(C#N)C#N | 0.5 (≈ 2.11 µM)
